Measurements taken from US20240368157A1, “FORMS AND COMPOSITIONS OF A JAK2 INHIBITOR” (Ajax Therapeutics, Inc., priority 2023, published 2024).

Tests used:
JAK1 = target: T1, JAK1 (Homo sapiens, UniProt P23458); assay: JAK Family Selectivity Assay (JAK1 vs JAK2 binding affinity); conditions: selectivity over JAK2
T1 construct: made in house; host or cells: E. coli (BL21-derived, T7 phage display) or HEK-293
Protocol: (§1) Provided compounds are evaluated for selectivity by comparing their JAK2 binding affinity (Kd) in the above JAK2 Binding Assay with their binding affinity (Kd) for one or more other kinases. Binding affinity for other kinases is determined as follows: Kinase-tagged T7 phage strains are prepared in an E. coli host derived from the BL21 strain. E. coli are grown to log-phase and infected with T7 phage and incubated with shaking at 32° C. until lysis. The lysates are centrifuged and filtered to remove cell debris. The remaining kinases are produced in HEK-293 cells and subsequently tagged with DNA for qPCR detection. Streptavidin-coated magnetic beads are treated with biotinylated small molecule ligands for 30 minutes at room temperature to generate affinity resins for kinase assays. The liganded beads are blocked with excess biotin and washed with blocking buffer (SeaBlock (Pierce), 1% BSA, 0.05% Tween 20, 1 mM DTT) to remove unbound ligand and to reduce non-specific binding. Binding reactions are assembled by combining kinases, liganded affinity beads, and test compounds in 1× binding buffer (20% SeaBlock, 0.17×PBS, 0.05% Tween 20, 6 mM DTT). Test compounds are prepared as 111× stocks in 100% DMSO. Kds are determined using an 11-point 3-fold compound dilution series with three DMSO control points. […] The kinase concentration in the eluates is measured by qPCR. […]

[1] = Hepatocyte Stability Assay (human hepatocytes); assay type: in vitro ADME; conditions: cryopreserved hepatocytes, read-out: Human Heps CLint
Protocol: 10 mM stock solutions of test compound and positive control are prepared in DMSO. Stock solutions are diluted to 100 μM by combining 198 μL of 50% acetonitrile/50% water and 2 μL of 10 mM stock solution. Verapamil is used as positive control in the assay. Vials of cryopreserved hepatocytes are thawed in a 37° C. water bath with gently shaking. The contents are poured into the 50 mL thawing medium conical tube. Vials are centrifuged at 100 g for 10 minutes at room temperature. Thawing medium is aspirated and hepatocytes are re-suspended with serum-free incubation medium to yield ˜1.5×10^6 cells/mL. Cell viability and density are counted using a Trypan Blue exclusion, and then cells are diluted with serum-free incubation medium to a working cell density of 0.5×10^6 viable cells/mL. A portion of the hepatocytes at 0.5×10^6 viable cells/mL are boiled for 5 min prior to adding to the plate as negative control to eliminate the enzymatic activity so that little or no substrate turnover should be observed. Aliquots of 198 μL hepatocytes are dispensed into each well of a 96-well non-coated plate. The plate is placed in the incubator for approximately 10 minutes. Aliquots of 2 μL of the 100 μM test compound and 2 μL positive control are added into respective wells of a non-coated 96-well plate to start the reaction. The final concentration of test compound is 1 μM. […]

JAK3 = target: T2, JAK3 (Homo sapiens, UniProt P52333); assay: JAK Family Selectivity Assay (JAK3 vs JAK2 binding affinity); conditions: selectivity over JAK2
T2 construct: made in house; host or cells: E. coli (BL21-derived, T7 phage display) or HEK-293
T2 sequence (P52333 1-1124): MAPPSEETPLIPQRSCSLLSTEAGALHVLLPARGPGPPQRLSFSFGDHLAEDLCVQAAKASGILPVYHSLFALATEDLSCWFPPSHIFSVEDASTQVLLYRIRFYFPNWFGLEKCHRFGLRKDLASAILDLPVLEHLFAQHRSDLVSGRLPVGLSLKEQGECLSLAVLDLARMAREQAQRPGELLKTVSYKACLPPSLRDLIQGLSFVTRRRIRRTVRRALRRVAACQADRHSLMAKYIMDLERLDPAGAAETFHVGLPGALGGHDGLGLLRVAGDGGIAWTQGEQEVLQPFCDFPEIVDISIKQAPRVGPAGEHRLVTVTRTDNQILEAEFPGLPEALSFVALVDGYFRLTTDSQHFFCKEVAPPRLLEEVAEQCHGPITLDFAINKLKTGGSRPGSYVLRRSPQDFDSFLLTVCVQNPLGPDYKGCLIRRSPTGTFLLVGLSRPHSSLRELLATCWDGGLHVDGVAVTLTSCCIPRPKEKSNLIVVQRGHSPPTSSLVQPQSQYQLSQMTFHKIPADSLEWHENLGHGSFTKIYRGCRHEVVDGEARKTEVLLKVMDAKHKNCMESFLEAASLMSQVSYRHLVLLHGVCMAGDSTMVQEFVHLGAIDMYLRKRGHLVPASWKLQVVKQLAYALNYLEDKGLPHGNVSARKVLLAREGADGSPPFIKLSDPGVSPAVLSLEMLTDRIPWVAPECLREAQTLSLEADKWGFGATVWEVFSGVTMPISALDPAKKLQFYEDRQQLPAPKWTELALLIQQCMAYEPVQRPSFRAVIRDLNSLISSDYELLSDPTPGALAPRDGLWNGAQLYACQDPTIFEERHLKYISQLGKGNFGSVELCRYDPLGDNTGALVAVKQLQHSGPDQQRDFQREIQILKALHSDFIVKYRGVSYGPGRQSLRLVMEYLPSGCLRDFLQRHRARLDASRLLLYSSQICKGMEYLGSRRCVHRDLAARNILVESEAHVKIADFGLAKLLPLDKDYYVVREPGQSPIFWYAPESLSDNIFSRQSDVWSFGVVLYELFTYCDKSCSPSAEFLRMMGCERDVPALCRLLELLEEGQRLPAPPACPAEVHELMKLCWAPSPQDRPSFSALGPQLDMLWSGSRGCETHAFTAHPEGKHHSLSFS
Protocol: as §1

TYK2 = target: T3, TYK2 (Homo sapiens, UniProt P29597); assay: JAK Family Selectivity Assay (TYK2 vs JAK2 binding affinity); conditions: selectivity over JAK2
T3 construct: made in house; host or cells: E. coli (BL21-derived, T7 phage display) or HEK-293
T3 sequence (P29597 whole entry): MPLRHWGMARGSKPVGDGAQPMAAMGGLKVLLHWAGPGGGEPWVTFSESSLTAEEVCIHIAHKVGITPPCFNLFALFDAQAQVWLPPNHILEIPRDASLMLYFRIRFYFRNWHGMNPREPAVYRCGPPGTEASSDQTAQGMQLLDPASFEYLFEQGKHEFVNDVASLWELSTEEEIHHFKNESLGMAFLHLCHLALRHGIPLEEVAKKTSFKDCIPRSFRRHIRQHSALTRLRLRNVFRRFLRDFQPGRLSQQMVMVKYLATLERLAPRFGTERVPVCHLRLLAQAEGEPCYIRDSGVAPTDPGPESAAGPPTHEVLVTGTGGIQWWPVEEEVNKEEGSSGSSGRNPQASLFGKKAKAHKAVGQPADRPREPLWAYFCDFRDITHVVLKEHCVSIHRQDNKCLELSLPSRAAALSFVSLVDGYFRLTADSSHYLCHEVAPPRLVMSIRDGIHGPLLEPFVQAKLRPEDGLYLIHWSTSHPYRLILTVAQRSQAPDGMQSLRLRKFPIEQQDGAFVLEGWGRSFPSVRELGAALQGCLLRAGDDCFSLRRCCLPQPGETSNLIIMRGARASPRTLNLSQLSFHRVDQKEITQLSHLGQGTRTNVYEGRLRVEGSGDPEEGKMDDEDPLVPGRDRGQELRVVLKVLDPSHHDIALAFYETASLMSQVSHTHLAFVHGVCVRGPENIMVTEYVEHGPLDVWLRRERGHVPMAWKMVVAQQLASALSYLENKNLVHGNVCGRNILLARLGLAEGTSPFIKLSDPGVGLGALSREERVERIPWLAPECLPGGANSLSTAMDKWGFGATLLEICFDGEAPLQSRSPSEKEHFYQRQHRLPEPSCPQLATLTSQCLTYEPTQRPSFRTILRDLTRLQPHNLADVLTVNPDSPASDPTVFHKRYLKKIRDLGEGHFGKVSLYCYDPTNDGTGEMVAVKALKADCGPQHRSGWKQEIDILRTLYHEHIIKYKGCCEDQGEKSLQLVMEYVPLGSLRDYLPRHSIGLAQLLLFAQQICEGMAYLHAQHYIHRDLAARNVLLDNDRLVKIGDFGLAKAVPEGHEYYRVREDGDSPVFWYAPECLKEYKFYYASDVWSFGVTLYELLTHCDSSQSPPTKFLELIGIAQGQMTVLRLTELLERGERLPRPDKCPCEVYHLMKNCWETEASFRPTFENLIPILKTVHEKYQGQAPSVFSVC
Protocol: as §1

T1 sequence (P23458 whole entry): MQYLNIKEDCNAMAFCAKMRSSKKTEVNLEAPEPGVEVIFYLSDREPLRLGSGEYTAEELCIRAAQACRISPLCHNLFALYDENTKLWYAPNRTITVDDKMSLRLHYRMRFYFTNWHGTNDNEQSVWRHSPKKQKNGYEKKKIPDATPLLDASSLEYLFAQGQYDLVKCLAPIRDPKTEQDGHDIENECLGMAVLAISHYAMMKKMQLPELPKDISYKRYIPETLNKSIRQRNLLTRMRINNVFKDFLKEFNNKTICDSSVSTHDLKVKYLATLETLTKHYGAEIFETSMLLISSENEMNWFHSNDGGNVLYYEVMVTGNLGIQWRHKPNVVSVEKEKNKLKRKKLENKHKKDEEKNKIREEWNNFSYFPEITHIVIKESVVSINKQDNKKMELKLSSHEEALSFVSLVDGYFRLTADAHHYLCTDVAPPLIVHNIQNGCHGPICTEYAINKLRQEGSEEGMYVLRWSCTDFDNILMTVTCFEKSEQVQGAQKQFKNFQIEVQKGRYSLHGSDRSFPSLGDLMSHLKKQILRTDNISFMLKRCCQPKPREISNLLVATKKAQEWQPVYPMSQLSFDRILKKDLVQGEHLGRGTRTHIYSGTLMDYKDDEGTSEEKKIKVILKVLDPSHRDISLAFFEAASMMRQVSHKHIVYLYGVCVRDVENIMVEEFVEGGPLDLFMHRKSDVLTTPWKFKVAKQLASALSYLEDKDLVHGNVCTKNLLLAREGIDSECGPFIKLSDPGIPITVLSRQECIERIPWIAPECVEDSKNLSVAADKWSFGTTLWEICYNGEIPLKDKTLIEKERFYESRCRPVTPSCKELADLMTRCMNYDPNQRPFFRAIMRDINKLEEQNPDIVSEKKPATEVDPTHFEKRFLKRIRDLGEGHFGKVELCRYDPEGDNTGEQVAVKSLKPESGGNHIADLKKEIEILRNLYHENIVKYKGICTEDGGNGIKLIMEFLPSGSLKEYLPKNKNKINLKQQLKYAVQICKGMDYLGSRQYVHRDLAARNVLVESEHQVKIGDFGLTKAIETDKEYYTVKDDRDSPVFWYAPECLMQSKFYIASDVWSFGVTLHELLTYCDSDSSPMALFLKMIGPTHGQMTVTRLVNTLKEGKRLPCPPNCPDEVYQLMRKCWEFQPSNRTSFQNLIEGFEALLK

JAK1/JAK2 Kd/Kd ratio (JAK1)	CLint scaled at 1 μM [1] [mL/min/kg]	JAK3/JAK2 Kd/Kd ratio (JAK3)	TYK2/JAK2 Kd/Kd ratio (TYK2)	SMILES
B (Kd/Kd ratio<1000 and ≥300)	≤ 6	A (Kd/Kd ratio≥1000)	C (Kd/Kd ratio<300 and ≥100)	CN(C)C(=O)Nc1cc(Oc2cnc3nc(Nc4cc(C(F)(F)F)cn(C)c4=O)n(C)c3c2C#N)ccn1 [Compound 1, 3-(4-((7-cyano-1-methyl-2-((1-methyl-2-oxo-5-(trifluoromethyl)-1,2-dihydropyridin-3-yl)amino)-1H-imidazo[4,5-b]pyridin-6-yl)oxy)pyridin-2-yl)-1,1-dimethylurea]
C (Kd/Kd ratio<300 and ≥100)	12 to 20	A (Kd/Kd ratio≥1000)	C (Kd/Kd ratio<300 and ≥100)	CCN1CCN(Cc2ccc(Nc3nc4ccc(Oc5ccnc(NC(C)=O)c5)cc4n3C)cc2C(F)(F)F)CC1 [Compound R-1, reference compound]
